From patent US8889370B2, “Method of determining inhibitors of coagulation” (Siemens Healthcare Diagnostics Products GmbH, priority 2010, dated 2014)
Read-outs that look alike come from different tables or passages of the source.

Target: T1, bovine thrombin (Bos taurus, UniProt P00735)
T1 construct: a lyophilized thrombin reagent consisting of bovine thrombin; purchased Siemens Healthcare Diagnostics (hirudin activity assay, thrombin reagent)
Test: Determination of the thrombin binding constant (Ki) of peptide aldehyde ligands, chromogenic assay with hirudin activity assay reagents, Dixon plot
Type: biochemical
Protocol: The kinetic data of the peptide aldehyde ligands were determined in chromogenic assay formats by measuring the rate of hydrolysis of chromogenic peptide substrates which compete with the peptide aldehyde ligands for binding to the active site of the particular enzyme, at various substrate concentrations and peptide aldehyde-ligand concentrations. The binding constant (Ki) was determined by a known method (Dixon, M., 1953, Biochem J, 55, 170-171).
The thrombin binding constant was determined using the reagents of the hirudin activity assay from Siemens Healthcare Diagnostics. The hirudin activity assay comprises a lyophilized thrombin reagent consisting of bovine thrombin, a heparin inhibitor and aprotinin, a lyophilized chromogenic substrate reagent with a concentration of 4 mmol/l tos-Gly-Pro-Arg-ANBA-IPA (tosylglycyl-L-propyl-arginyl-5-amino-2-nitrobenzoyliso-propylamide) after reconstitution. The thrombin reagent was reconstituted in buffer solution (trishydroxymethylamino-methane, NaCl, pH 8.2). Dilutions of the substrate reagent were prepared with deionized water. The peptide aldehyde ligands prepared according to example 1 were dissolved in water and used as sample. The B-r-G-R—H ligand was used in a concentration range from 26.1 to 0.815 μM. The B-f-P—R—H ligand was used in a concentration range from 26.1 to 0 μM. The assays were carried out automatically in a BCS® XP coagulation analyzer (Siemens Healthcare Diagnostics, Marburg, Germany).
A reaction mix was mixed together as follows:
30 μl of sample (peptide aldehyde ligand B-r-G-R—H or B-f-P—R—H),
150 μl of thrombin reagent,
50 μl of chromogenic substrate reagent (tos-Gly-Pro-Arg-ABNA-IPA).
The reaction rate in mE/min was determined on the basis of the increase in optical density of the reaction mix at a wavelength of 405 nm. For this, the optical density of the reaction mixes was determined in time intervals of from 15 to 40 seconds for the B-f-P—R—H peptide aldehyde ligand or 5-16 seconds for the B-r-G-R—H peptide aldehyde ligand.
Reversibly and irreversibly binding ligands can be distinguished by their reaction kinetics. Plotting 1/v, where v is the reaction rate, as a function of the ligand concentration (i) at a constant concentration (S) of a cleavable substrate produces a line. When using two or more different substrate concentrations (S1, S2 . . . SN), said lines intersect at a single point. The x axis value of this point corresponds to −Ki, with Ki corresponding to the binding constant, see, for example, Klebe, G., Wirkstoffdesign, 2nd edition, Spektrum Akademischer Verlag, Heidelberg, Germany, 2009, pages 52-62 and Dixon, M., 1953, Biochem J, 55, 170-171. With an irreversible inhibition, the curves meet at a single point on the x axis, which again corresponds to −Ki.

SMILES: N=C(N)NCCC[C@@H](C=O)NC(=O)[C@@H]1CCCN1C(=O)[C@@H](Cc1ccccc1)NC(=O)CCC(=O)NCCCOCCOCCOCCCNC(=O)CCCC[C@@H]1SC[C@@H]2NC(=O)N[C@@H]21 [B-f-P-R-H, biotinyl-Ttds-D-Phe-Pro-Arg-H]
- 1/Reaction rate (CB-f-P-R-H 0.02038 μM, Csubstrate = 0.5 mM, not in the linear region, excluded from regression): 1.869 min/E
- 1/Reaction rate (CB-f-P-R-H 0.02038 μM, Csubstrate = 2 mM): 0.4138 min/E
- 1/Reaction rate (CB-f-P-R-H 0.02038 μM, Csubstrate = 4 mM): 0.3846 min/E
- 1/Reaction rate (CB-f-P-R-H 0.04076 μM, Csubstrate = 0.5 mM, not in the linear region, excluded from regression): 1.747 min/E
- 1/Reaction rate (CB-f-P-R-H 0.04076 μM, Csubstrate = 2 mM): 0.4247 min/E
- 1/Reaction rate (CB-f-P-R-H 0.04076 μM, Csubstrate = 4 mM): 0.393 min/E
- 1/Reaction rate (CB-f-P-R-H 0.08152 μM, Csubstrate = 0.5 mM): 1.565 min/E
- 1/Reaction rate (CB-f-P-R-H 0.08152 μM, Csubstrate = 2 mM): 0.4594 min/E
- 1/Reaction rate (CB-f-P-R-H 0.08152 μM, Csubstrate = 4 mM): 0.4143 min/E
- 1/Reaction rate (CB-f-P-R-H 0.16304 μM, Csubstrate = 0.5 mM): 1.711 min/E
- 1/Reaction rate (CB-f-P-R-H 0.16304 μM, Csubstrate = 2 mM): 0.521 min/E
- 1/Reaction rate (CB-f-P-R-H 0.16304 μM, Csubstrate = 4 mM): 0.4395 min/E
- 1/Reaction rate (CB-f-P-R-H 0.20380 μM, Csubstrate = 0.5 mM): 1.638 min/E
- 1/Reaction rate (CB-f-P-R-H 0.20380 μM, Csubstrate = 2 mM): 0.5061 min/E
- 1/Reaction rate (CB-f-P-R-H 0.20380 μM, Csubstrate = 4 mM): 0.4298 min/E
- 1/Reaction rate (CB-f-P-R-H 0.32609 μM, Csubstrate = 0.5 mM): 2.382 min/E
- 1/Reaction rate (CB-f-P-R-H 0.32609 μM, Csubstrate = 2 mM): 0.6613 min/E
- 1/Reaction rate (CB-f-P-R-H 0.32609 μM, Csubstrate = 4 mM): 0.5012 min/E
- 1/Reaction rate (CB-f-P-R-H 0.40761 μM, Csubstrate = 0.5 mM): 2.645 min/E
- 1/Reaction rate (CB-f-P-R-H 0.40761 μM, Csubstrate = 2 mM): 0.7008 min/E
- 1/Reaction rate (CB-f-P-R-H 0.40761 μM, Csubstrate = 4 mM): 0.5334 min/E
- 1/Reaction rate (CB-f-P-R-H 0.65217 μM, Csubstrate = 0.5 mM): 4.162 min/E
- 1/Reaction rate (CB-f-P-R-H 0.65217 μM, Csubstrate = 2 mM): 1.029 min/E
- 1/Reaction rate (CB-f-P-R-H 0.65217 μM, Csubstrate = 4 mM): 0.6737 min/E
- 1/Reaction rate (CB-f-P-R-H 0.81522 μM, Csubstrate = 0.5 mM): 4.775 min/E
- 1/Reaction rate (CB-f-P-R-H 0.81522 μM, Csubstrate = 2 mM): 1.169 min/E
- 1/Reaction rate (CB-f-P-R-H 0.81522 μM, Csubstrate = 4 mM): 0.7274 min/E
- 1/Reaction rate (CB-f-P-R-H 1.30435 μM, Csubstrate = 0.5 mM): 7.175 min/E
- 1/Reaction rate (CB-f-P-R-H 1.30435 μM, Csubstrate = 2 mM): 1.793 min/E
- 1/Reaction rate (CB-f-P-R-H 1.30435 μM, Csubstrate = 4 mM): 0.9974 min/E
- 1/Reaction rate (CB-f-P-R-H 1.63043 μM, Csubstrate = 0.5 mM): 8.491 min/E
- 1/Reaction rate (CB-f-P-R-H 1.63043 μM, Csubstrate = 2 mM): 2.164 min/E
- 1/Reaction rate (CB-f-P-R-H 1.63043 μM, Csubstrate = 4 mM): 1.183 min/E
- 1/Reaction rate (CB-f-P-R-H 2.60870 μM, Csubstrate = 0.5 mM): 13.19 min/E
- 1/Reaction rate (CB-f-P-R-H 2.60870 μM, Csubstrate = 2 mM): 3.37 min/E
- 1/Reaction rate (CB-f-P-R-H 2.60870 μM, Csubstrate = 4 mM): 1.775 min/E
- 1/Reaction rate (CB-f-P-R-H 3.26087 μM, Csubstrate = 0.5 mM): 15.77 min/E
- 1/Reaction rate (CB-f-P-R-H 3.26087 μM, Csubstrate = 2 mM): 4.026 min/E
- 1/Reaction rate (CB-f-P-R-H 3.26087 μM, Csubstrate = 4 mM): 2.13 min/E
- 1/Reaction rate (CB-f-P-R-H 5.21739 μM, Csubstrate = 0.5 mM): 24.76 min/E
- 1/Reaction rate (CB-f-P-R-H 5.21739 μM, Csubstrate = 2 mM): 6.165 min/E
- 1/Reaction rate (CB-f-P-R-H 5.21739 μM, Csubstrate = 4 mM): 3.251 min/E
- 1/Reaction rate (CB-f-P-R-H 6.52174 μM, Csubstrate = 0.5 mM): 32.28 min/E
- 1/Reaction rate (CB-f-P-R-H 6.52174 μM, Csubstrate = 2 mM): 7.856 min/E
- 1/Reaction rate (CB-f-P-R-H 6.52174 μM, Csubstrate = 4 mM): 4.089 min/E
- 1/Reaction rate (CB-f-P-R-H 9.78261 μM, Csubstrate = 0.5 mM): 43.9 min/E
- 1/Reaction rate (CB-f-P-R-H 9.78261 μM, Csubstrate = 2 mM): 11.18 min/E
- 1/Reaction rate (CB-f-P-R-H 9.78261 μM, Csubstrate = 4 mM): 5.843 min/E
- 1/Reaction rate (CB-f-P-R-H 13.04348 μM, Csubstrate = 0.5 mM): 59.12 min/E
- 1/Reaction rate (CB-f-P-R-H 13.04348 μM, Csubstrate = 2 mM): 14.43 min/E
- 1/Reaction rate (CB-f-P-R-H 13.04348 μM, Csubstrate = 4 mM): 7.611 min/E
- 1/Reaction rate (CB-f-P-R-H 16.30435 μM, Csubstrate = 0.5 mM): 74.55 min/E
- 1/Reaction rate (CB-f-P-R-H 16.30435 μM, Csubstrate = 2 mM): 18.09 min/E
- 1/Reaction rate (CB-f-P-R-H 16.30435 μM, Csubstrate = 4 mM): 9.302 min/E
- 1/Reaction rate (CB-f-P-R-H 26.08696 μM, Csubstrate = 0.5 mM): 121.7 min/E
- 1/Reaction rate (CB-f-P-R-H 26.08696 μM, Csubstrate = 2 mM): 28.41 min/E
- 1/Reaction rate (CB-f-P-R-H 26.08696 μM, Csubstrate = 4 mM): 14.59 min/E
- Intersect of regression curve 1/reaction rate vs ligand concentration (Csubstrate 0.5 mM): 0.9175 min/E
- Slope of regression curve 1/reaction rate vs ligand concentration (Csubstrate 0.5 mM): 4.5718 min/E μM
- Intersect of regression curve 1/reaction rate vs ligand concentration (Csubstrate 2 mM): 0.04059 min/E
- Slope of regression curve 1/reaction rate vs ligand concentration (Csubstrate 2 mM): 1.0812 min/E μM
- Intersect of regression curve 1/reaction rate vs ligand concentration (Csubstrate 4 mM): 0.3497 min/E
- Slope of regression curve 1/reaction rate vs ligand concentration (Csubstrate 4 mM): 0.5500 min/E μM
- Ki (average of three Ki values, read-out: KiM average thrombin binding constant): 131 nM
- Ki (intersection of regression curves Csubstrate 2 and 0.5 mM, read-out: Ki2&3 thrombin binding constant): 147 nM
- Ki (intersection of regression curves Csubstrate 4 and 0.5 mM, read-out: Ki1&3 thrombin binding constant): 141 nM
- Ki (intersection of regression curves Csubstrate 4 and 2 mM, read-out: Ki1&2 thrombin binding constant): 106 nM
- binding of the peptide aldehyde with thrombin (reversible or irreversible) (intersections of regression curves not on the x axis): reversible
